Assay results taken from the supplement of paper PMC10307832.

Assays:
Experiment in all cases: relative viability (nuclei count vs DMSO), 5 days (fraction); higher = more cells survive
Dovitinib = compound: CN1CCN(c2ccc3nc(-c4c(N)c5c(F)cccc5[nH]c4=O)[nH]c3c2)CC1 [Dovitinib]
Method in brief: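 Five library-drug doses, separated by factors of √10, were pinned into 1536-well plates holding lung cancer cell lines after an overnight stay at 37 °C. Cells were fixed, permeabilised and Hoechst-stained in one step after 5 days without medium change, then imaged at 4×. Viability compares treated-well with vehicle-well nuclei, counted in MetaXpress, as a median across plates. Passing plates had control CV below 25% and at least one doubling.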

Dovitinib + Luminespib = compound: CN1CCN(c2ccc3nc(-c4c(N)c5c(F)cccc5[nH]c4=O)[nH]c3c2)CC1 [Dovitinib] + CCNC(=O)c1noc(-c2cc(C(C)C)c(O)cc2O)c1-c1ccc(CN2CCOCC2)cc1 [Luminespib] (partner 0.01 µM)
Method in brief: (§1)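 Medians of duplicate plates are given as relative viability. That measure is the nuclei count in treated wells divided by the count in vehicle wells. Counts were taken on 4× images of lung cancer cell lines in 1536-well plates, 5 days after pin-tool dosing the day after seeding with one drug alone or a fixed anchor-drug dose plus five library-drug doses (not always all listed) in √10 steps.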

Dovitinib + Foretinib = compound: CN1CCN(c2ccc3nc(-c4c(N)c5c(F)cccc5[nH]c4=O)[nH]c3c2)CC1 [Dovitinib] + COc1cc2c(Oc3ccc(NC(=O)C4(C(=O)Nc5ccc(F)cc5)CC4)cc3F)ccnc2cc1OCCCN1CCOCC1 [Foretinib] (partner 0.25 µM)
Method in brief: as §1

Dovitinib + OSI-027 = compound: CN1CCN(c2ccc3nc(-c4c(N)c5c(F)cccc5[nH]c4=O)[nH]c3c2)CC1 [Dovitinib] + COc1cccc2cc(-c3nc([C@H]4CC[C@H](C(=O)O)CC4)n4ncnc(N)c34)[nH]c12 [OSI-027] (partner 0.5 µM)
Method in brief: as §1

Dovitinib + Tozasertib = compound: CN1CCN(c2ccc3nc(-c4c(N)c5c(F)cccc5[nH]c4=O)[nH]c3c2)CC1 [Dovitinib] + Cc1cc(Nc2cc(N3CCN(C)CC3)nc(Sc3ccc(NC(=O)C4CC4)cc3)n2)n[nH]1 [Tozasertib] (partner 0.1 µM)
Method in brief: as §1

Dovitinib + Dasatinib = compound: CN1CCN(c2ccc3nc(-c4c(N)c5c(F)cccc5[nH]c4=O)[nH]c3c2)CC1 [Dovitinib] + Cc1nc(Nc2ncc(C(=O)Nc3c(C)cccc3Cl)s2)cc(N2CCN(CCO)CC2)n1 [Dasatinib] (partner 0.075 µM)
Method in brief: as §1

Dovitinib + Phenformin = compound: CN1CCN(c2ccc3nc(-c4c(N)c5c(F)cccc5[nH]c4=O)[nH]c3c2)CC1 [Dovitinib] + N=C(N)NC(=N)NCCc1ccccc1 [Phenformin] (partner 250 µM)
Method in brief: as §1

Dovitinib + Trametinib = compound: CN1CCN(c2ccc3nc(-c4c(N)c5c(F)cccc5[nH]c4=O)[nH]c3c2)CC1 [Dovitinib] + CC(=O)Nc1cccc(-n2c(=O)n(C3CC3)c(=O)c3c(Nc4ccc(I)cc4F)n(C)c(=O)c(C)c32)c1 [Trametinib] (partner 0.02 µM)
Method in brief: as §1

Dovitinib + Palbociclib = compound: CN1CCN(c2ccc3nc(-c4c(N)c5c(F)cccc5[nH]c4=O)[nH]c3c2)CC1 [Dovitinib] + CC(=O)c1c(C)c2cnc(Nc3ccc(N4CCNCC4)cn3)nc2n(C2CCCC2)c1=O [Palbociclib] (partner 0.5 µM)
Method in brief: as §1

Dovitinib + AZD7762 = compound: CN1CCN(c2ccc3nc(-c4c(N)c5c(F)cccc5[nH]c4=O)[nH]c3c2)CC1 [Dovitinib] + NC(=O)Nc1cc(-c2cccc(F)c2)sc1C(=O)N[C@H]1CCCNC1 [AZD7762] (partner 0.2 µM)
Method in brief: as §1

Dovitinib + Pemetrexed = compound: CN1CCN(c2ccc3nc(-c4c(N)c5c(F)cccc5[nH]c4=O)[nH]c3c2)CC1 [Dovitinib] + Nc1nc2[nH]cc(CCc3ccc(C(=O)N[C@@H](CCC(=O)O)C(=O)O)cc3)c2c(=O)[nH]1 [Pemetrexed] (partner 0.2 µM)
Method in brief: as §1

Dovitinib + Decitabine = compound: CN1CCN(c2ccc3nc(-c4c(N)c5c(F)cccc5[nH]c4=O)[nH]c3c2)CC1 [Dovitinib] + Nc1ncn([C@H]2C[C@H](O)[C@@H](CO)O2)c(=O)n1 [Decitabine] (partner 2 µM)
Method in brief: as §1

Dovitinib + Vorinostat = compound: CN1CCN(c2ccc3nc(-c4c(N)c5c(F)cccc5[nH]c4=O)[nH]c3c2)CC1 [Dovitinib] + O=C(CCCCCCC(=O)Nc1ccccc1)NO [Vorinostat] (partner 1 µM)
Method in brief: as §1

Dovitinib + Olaparib = compound: CN1CCN(c2ccc3nc(-c4c(N)c5c(F)cccc5[nH]c4=O)[nH]c3c2)CC1 [Dovitinib] + O=C(c1cc(Cc2n[nH]c(=O)c3ccccc23)ccc1F)N1CCN(C(=O)C2CC2)CC1 [Olaparib] (partner 8 µM)
Method in brief: as §1

NCI-H1623 showed a relative viability (Dovitinib; 0.02 µM) of 1.07, a relative viability (Dovitinib; 0.06325 µM) of 0.98 and a relative viability (Dovitinib; 0.2 µM) of 0.916. The relative viability (Dovitinib; 0.6325 µM) was 1, the relative viability (Dovitinib; 2 µM) was 0.892 and the relative viability (Dovitinib + Luminespib; first compound 0.02 µM) was 0.493. The relative viability (Dovitinib + Luminespib; first compound 0.06325 µM) was 0.605, the relative viability (Dovitinib + Luminespib; first compound 0.2 µM) was 0.491 and the relative viability (Dovitinib + Luminespib; first compound 0.6325 µM) was 0.551. It also gave a relative viability (Dovitinib + Luminespib; first compound 2 µM) of 0.516, a relative viability (Dovitinib + Foretinib; first compound 0.02 µM) of 0.81 and a relative viability (Dovitinib + Foretinib; first compound 0.06325 µM) of 0.821. For the same cell line, the relative viability (Dovitinib + Foretinib; first compound 0.2 µM) was 0.958, the relative viability (Dovitinib + Foretinib; first compound 0.6325 µM) was 0.901 and the relative viability (Dovitinib + Foretinib; first compound 2 µM) was 0.893. For the same cell line, the relative viability (Dovitinib + OSI-027; first compound 0.02 µM) was 0.476, the relative viability (Dovitinib + OSI-027; first compound 0.06325 µM) was 0.436 and the relative viability (Dovitinib + OSI-027; first compound 0.2 µM) was 0.456. It also gave a relative viability (Dovitinib + OSI-027; first compound 0.6325 µM) of 0.384, a relative viability (Dovitinib + OSI-027; first compound 2 µM) of 0.384 and a relative viability (Dovitinib + Tozasertib; first compound 0.02 µM) of 0.458. It also gave a relative viability (Dovitinib + Tozasertib; first compound 0.06325 µM) of 0.427, a relative viability (Dovitinib + Tozasertib; first compound 0.2 µM) of 0.495 and a relative viability (Dovitinib + Tozasertib; first compound 0.6325 µM) of 0.445. It also gave a relative viability (Dovitinib + Tozasertib; first compound 2 µM) of 0.423, a relative viability (Dovitinib + Dasatinib; first compound 0.02 µM) of 0.47 and a relative viability (Dovitinib + Dasatinib; first compound 0.06325 µM) of 0.527. The relative viability (Dovitinib + Dasatinib; first compound 0.2 µM) was 0.615, the relative viability (Dovitinib + Dasatinib; first compound 0.6325 µM) was 0.536 and the relative viability (Dovitinib + Dasatinib; first compound 2 µM) was 0.537. The relative viability (Dovitinib + Phenformin; first compound 0.02 µM) was 0.569, the relative viability (Dovitinib + Phenformin; first compound 0.06325 µM) was 0.574 and the relative viability (Dovitinib + Phenformin; first compound 0.2 µM) was 0.602. The relative viability (Dovitinib + Phenformin; first compound 0.6325 µM) was 0.617 and the relative viability (Dovitinib + Phenformin; first compound 2 µM) was 0.636.

SW 900 was tested, and the relative viability (Dovitinib; 0.02 µM) was 1.11, the relative viability (Dovitinib; 0.06325 µM) was 0.853 and the relative viability (Dovitinib; 0.2 µM) was 1.11. The relative viability (Dovitinib; 0.6325 µM) was 1.04, the relative viability (Dovitinib; 2 µM) was 0.952 and the relative viability (Dovitinib + Trametinib; first compound 0.02 µM) was 0.811. It also gave a relative viability (Dovitinib + Trametinib; first compound 0.06325 µM) of 0.763, a relative viability (Dovitinib + Trametinib; first compound 0.2 µM) of 1.06 and a relative viability (Dovitinib + Trametinib; first compound 0.6325 µM) of 0.771. It also gave a relative viability (Dovitinib + Trametinib; first compound 2 µM) of 1.08, a relative viability (Dovitinib + Palbociclib; first compound 0.02 µM) of 0.588 and a relative viability (Dovitinib + Palbociclib; first compound 0.06325 µM) of 0.632. The relative viability (Dovitinib + Palbociclib; first compound 0.2 µM) was 0.615, the relative viability (Dovitinib + Palbociclib; first compound 0.6325 µM) was 0.611 and the relative viability (Dovitinib + Palbociclib; first compound 2 µM) was 0.571. It also gave a relative viability (Dovitinib + Luminespib; first compound 0.02 µM) of 0.181, a relative viability (Dovitinib + Luminespib; first compound 0.06325 µM) of 0.173 and a relative viability (Dovitinib + Luminespib; first compound 0.2 µM) of 0.176. It also gave a relative viability (Dovitinib + Luminespib; first compound 0.6325 µM) of 0.164, a relative viability (Dovitinib + Luminespib; first compound 2 µM) of 0.149 and a relative viability (Dovitinib + Foretinib; first compound 0.02 µM) of 0.85. For the same cell line, the relative viability (Dovitinib + Foretinib; first compound 0.06325 µM) was 0.841, the relative viability (Dovitinib + Foretinib; first compound 0.2 µM) was 0.919 and the relative viability (Dovitinib + Foretinib; first compound 0.6325 µM) was 1. For the same cell line, the relative viability (Dovitinib + Foretinib; first compound 2 µM) was 0.792, the relative viability (Dovitinib + OSI-027; first compound 0.02 µM) was 0.465 and the relative viability (Dovitinib + OSI-027; first compound 0.06325 µM) was 0.556. It also gave a relative viability (Dovitinib + OSI-027; first compound 0.2 µM) of 0.616, a relative viability (Dovitinib + OSI-027; first compound 0.6325 µM) of 0.54 and a relative viability (Dovitinib + OSI-027; first compound 2 µM) of 0.62. The relative viability (Dovitinib + Tozasertib; first compound 0.02 µM) was 0.459, the relative viability (Dovitinib + Tozasertib; first compound 0.06325 µM) was 0.537 and the relative viability (Dovitinib + Tozasertib; first compound 0.2 µM) was 0.533. It also gave a relative viability (Dovitinib + Tozasertib; first compound 0.6325 µM) of 0.582, a relative viability (Dovitinib + Tozasertib; first compound 2 µM) of 0.689 and a relative viability (Dovitinib + Dasatinib; first compound 0.02 µM) of 0.741. The relative viability (Dovitinib + Dasatinib; first compound 0.06325 µM) was 0.586, the relative viability (Dovitinib + Dasatinib; first compound 0.2 µM) was 0.548 and the relative viability (Dovitinib + Dasatinib; first compound 0.6325 µM) was 0.546. The relative viability (Dovitinib + Dasatinib; first compound 2 µM) was 0.61, the relative viability (Dovitinib + Phenformin; first compound 0.02 µM) was 0.83 and the relative viability (Dovitinib + Phenformin; first compound 0.06325 µM) was 0.834. For the same cell line, the relative viability (Dovitinib + Phenformin; first compound 0.2 µM) was 0.478, the relative viability (Dovitinib + Phenformin; first compound 0.6325 µM) was 0.618 and the relative viability (Dovitinib + Phenformin; first compound 2 µM) was 0.554. For the same cell line, the relative viability (Dovitinib + AZD7762; first compound 0.02 µM) was 0.591, the relative viability (Dovitinib + AZD7762; first compound 0.06325 µM) was 0.62 and the relative viability (Dovitinib + AZD7762; first compound 0.2 µM) was 0.505. The relative viability (Dovitinib + AZD7762; first compound 0.6325 µM) was 0.681, the relative viability (Dovitinib + AZD7762; first compound 2 µM) was 0.615 and the relative viability (Dovitinib + Pemetrexed; first compound 0.02 µM) was 0.473. The relative viability (Dovitinib + Pemetrexed; first compound 0.06325 µM) was 0.477, the relative viability (Dovitinib + Pemetrexed; first compound 0.2 µM) was 0.476 and the relative viability (Dovitinib + Pemetrexed; first compound 0.6325 µM) was 0.534. It also gave a relative viability (Dovitinib + Pemetrexed; first compound 2 µM) of 0.491, a relative viability (Dovitinib + Decitabine; first compound 0.02 µM) of 0.395 and a relative viability (Dovitinib + Decitabine; first compound 0.06325 µM) of 0.456. It also gave a relative viability (Dovitinib + Decitabine; first compound 0.2 µM) of 0.444, a relative viability (Dovitinib + Decitabine; first compound 0.6325 µM) of 0.377 and a relative viability (Dovitinib + Decitabine; first compound 2 µM) of 0.444. For the same cell line, the relative viability (Dovitinib + Vorinostat; first compound 0.02 µM) was 0.699, the relative viability (Dovitinib + Vorinostat; first compound 0.06325 µM) was 0.402 and the relative viability (Dovitinib + Vorinostat; first compound 0.2 µM) was 0.518. The relative viability (Dovitinib + Vorinostat; first compound 0.6325 µM) was 0.616, the relative viability (Dovitinib + Vorinostat; first compound 2 µM) was 0.493 and the relative viability (Dovitinib + Olaparib; first compound 0.02 µM) was 0.796. It also gave a relative viability (Dovitinib + Olaparib; first compound 0.06325 µM) of 0.809, a relative viability (Dovitinib + Olaparib; first compound 0.2 µM) of 0.847 and a relative viability (Dovitinib + Olaparib; first compound 0.6325 µM) of 0.808. It also gave a relative viability (Dovitinib + Olaparib; first compound 2 µM) of 0.851.
